One compound from publication PMC11209911 (ACS Omega, 2024) can be followed below.

This test deals with α-glucosidase. In words: α-glucosidase inhibitor screening kit. The format is biochemical.

Regarding `C=C/C=C(\C)CC[C@@H]1C[C@@H](O)CC(=O)O1` [30b, (4R,6R)-4-Hydroxy-6-((E)-3-methylhexa-3,5-dien-1-yl)tetrahydro-2H-pyran-2-one], the IC50 (in general, the concentration needed to halve the response being measured) is 66.1 µM.
